Laboratory results published in patent publication US11999727B2 (Tango Therapeutics, Inc., priority 2020, dated 2024).

Assays:
[1] = molecular target: T1, PRMT5 (Homo sapiens, UniProt O14744); test: PRMT5 biochemical IC50 assay with SAM as cofactor; conditions: PRMT5, SAM as cofactor; read-out: SAM IC50
T1 construct: purchased Viva (custom protein)

[2] = molecular target: T1, PRMT5; test: PRMT5 biochemical IC50 assay with MTA as cofactor; conditions: PRMT5, MTA as cofactor; read-out: MTA IC50
[3] = test system: HAP1 MTAP-deleted cell line; test: SDMA in-cell western assay, HAP1 MTAP-deleted; type: cell-based; conditions: for IC50: Homo sapiens, HAP1, SDMA in-cell western, HAP1 MTAP-deleted, read-out: HAP 1 MTAP deleted IC50; for MTAP intact/deleted ratio: IC50 ratio HAP1 MTAP-intact / HAP1 MTAP-deleted, SDMA in-cell western
Outline: (§1)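 MTAP-null vs endogenous-MTAP HAP1 isogenic cells; in-cell western SDMA readout; IC50 per line.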

[4] = molecular target: T1, PRMT5; test: PRMT5 biochemical IC50 assay with no cofactor; conditions: PRMT5, no cofactor; read-out: No Cofactor/rel IC50
Text: Table 1 indicates IC50 values (μM) against PRMT5 for exemplary compounds in the presence of SAM as cofactor, with no cofactor, and with MTA as cofactor, respectively (columns 4-6). […] Ki values can be calculated from the IC50 values as described in the Examples section. As detailed in the Examples section, for the assay performed in the presence of SAM, IC50=Ki×1.5 (Ki=IC50/1.5).

[5] = test system: HAP1 MTAP-deleted cell line; test: Viability assay, MTAP-deleted cell line; type: cell-based; conditions: Homo sapiens, HAP1, viability assay, MTAP-deleted cell line; read-out: HAP1 MTAP deleted viability
Text: Table 1 additionally indicates IC50 values in a viability assay for the MTAP-deleted cell line (column 10), indicating the effect of treatment with compound on cell survival.

[6] = test system: HAP1 MTAP-intact cell line; test: SDMA in-cell western assay, HAP1 MTAP-intact; type: cell-based; conditions: Homo sapiens, HAP1, SDMA in-cell western, HAP1 MTAP-intact; read-out: MTAP HAP1 intact IC50
Outline: as §1

T1 sequence (O14744 whole entry): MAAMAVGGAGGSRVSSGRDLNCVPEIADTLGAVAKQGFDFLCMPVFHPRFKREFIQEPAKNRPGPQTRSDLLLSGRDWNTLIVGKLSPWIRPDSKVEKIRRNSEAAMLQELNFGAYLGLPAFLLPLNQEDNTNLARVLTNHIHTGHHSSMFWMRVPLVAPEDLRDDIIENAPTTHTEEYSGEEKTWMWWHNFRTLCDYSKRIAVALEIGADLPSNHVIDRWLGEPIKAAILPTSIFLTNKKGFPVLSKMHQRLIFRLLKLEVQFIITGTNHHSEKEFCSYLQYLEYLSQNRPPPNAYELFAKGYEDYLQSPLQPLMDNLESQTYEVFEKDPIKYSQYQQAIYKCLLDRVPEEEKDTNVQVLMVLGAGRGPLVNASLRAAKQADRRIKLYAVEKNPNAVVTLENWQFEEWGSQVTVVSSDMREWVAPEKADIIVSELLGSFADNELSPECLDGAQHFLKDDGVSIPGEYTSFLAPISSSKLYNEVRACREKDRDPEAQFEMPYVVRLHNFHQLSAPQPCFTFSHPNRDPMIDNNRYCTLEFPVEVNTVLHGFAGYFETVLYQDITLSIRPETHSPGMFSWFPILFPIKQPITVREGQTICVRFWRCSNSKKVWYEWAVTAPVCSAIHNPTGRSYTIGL
T1 sequence (Q9BQA1 whole entry partner): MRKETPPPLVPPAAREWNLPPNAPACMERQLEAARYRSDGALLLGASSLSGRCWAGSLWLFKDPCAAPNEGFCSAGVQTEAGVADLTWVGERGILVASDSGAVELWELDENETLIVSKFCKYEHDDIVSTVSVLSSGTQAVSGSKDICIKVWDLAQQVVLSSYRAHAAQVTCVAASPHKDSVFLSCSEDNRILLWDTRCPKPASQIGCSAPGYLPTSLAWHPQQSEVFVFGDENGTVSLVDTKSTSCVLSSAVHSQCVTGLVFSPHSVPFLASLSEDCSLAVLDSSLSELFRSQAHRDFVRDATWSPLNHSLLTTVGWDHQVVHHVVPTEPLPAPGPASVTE

Row | IC50 [1] [µM] | IC50 [2] [µM] | IC50 [3] [µM] | IC50 [4] [µM] | IC50 [6] [µM] | SMILES | MTAP intact/deleted ratio [3] | IC50 [5] [µM]
1 | 0.05 to 0.5 | < 0.05 | < 0.1 | 0.05 to 0.5 | 0.1 to 1 | Cc1nc2cc([C@H]3CC[C@H](C)CN3C(=O)C(=O)Nc3cnc(N)c(C)c3)ccc2[nH]1 (single isomer, unassigned) [Compound 947] | A (an IC50 ratio greater than or equal to 10 fold) | < 1
2 | 0.05 to 0.5 | < 0.05 | < 0.1 | 0.05 to 0.5 | > 1 | Cc1cc(NC(=O)C(=O)N2C[C@H](C)CC[C@H]2c2ccc3[nH]nc(N)c3c2)cnc1C (single isomer, unassigned) [Compound 948] | A (an IC50 ratio greater than or equal to 10 fold) | < 1
3 | 0.05 to 0.5 | < 0.05 | 0.1 to 1 | 0.05 to 0.5 | > 1 | Cc1cc(NC(=O)C(=O)N2C[C@H](C)CC[C@H]2c2cccc3[nH]cnc23)cnc1N (single isomer, unassigned) [Compound 949] | A (an IC50 ratio greater than or equal to 10 fold) | 1 to 10
4 | > 0.5 | 0.05 to 0.5 | 0.1 to 1 | > 0.5 | > 1 | Cc1cc(NC(=O)C(=O)N2C[C@H](C)CC[C@H]2c2ccc3c(=O)[nH]ccc3c2)cnc1N (single isomer, unassigned) [Compound 953] | A (an IC50 ratio greater than or equal to 10 fold) | > 10
5 | > 0.5 | > 0.5 | > 1 | > 0.5 | > 1 | Cc1cc(NC(=O)C(=O)N2C[C@H](C)CC[C@H]2c2ccc3sc(C(F)(F)F)nc3c2)cnc1N (single isomer, unassigned) [Compound 959] | B (an IC50 ratio greater than or equal to 3 fold but lower than 10 fold) | > 10
6 | > 0.5 | < 0.05 | < 0.1 | 0.05 to 0.5 | > 1 | Cc1cc(NC(=O)C(=O)N2C[C@@H](C)CC[C@@H]2c2ccc3c(=O)[nH]ccc3c2)cnc1N (single isomer, unassigned) [Compound 961] | A (an IC50 ratio greater than or equal to 10 fold) | 1 to 10
7 | 0.05 to 0.5 | < 0.05 | 0.1 to 1 | 0.05 to 0.5 | > 1 | Cc1cc(NC(=O)C(=O)N2C[C@H](C)CC[C@H]2c2cccc3c2CCN3)cnc1N (single isomer, unassigned) [Compound 962] | A (an IC50 ratio greater than or equal to 10 fold) | 1 to 10
8 | > 0.5 | > 0.5 | > 1 | > 0.5 | > 1 | Cc1nc2cc([C@@H]3CC[C@@H](C)CN3C(=O)C(=O)Nc3cnc(N)c(C)c3)ccc2[nH]1 (single isomer, unassigned) [Compound 963] | B (an IC50 ratio greater than or equal to 3 fold but lower than 10 fold) | > 10
9 | > 0.5 | > 0.5 | > 1 | > 0.5 | > 1 | Cc1cc(NC(=O)C(=O)N2C[C@@H](C)CC[C@@H]2c2cccc3[nH]cnc23)cnc1N (single isomer, unassigned) [Compound 964] | C (an IC50 ratio of less than 3 fold) | > 10

Continued, molecule first:

Row | SMILES | IC50 [1] [µM] | IC50 [2] [µM] | IC50 [3] [µM] | IC50 [4] [µM] | IC50 [6] [µM] | MTAP intact/deleted ratio [3] | IC50 [5] [µM]
10 | C[C@@H]1CC[C@@H](c2cc3cn[nH]c3s2)N(C(=O)C(=O)Nc2cncc(C(N)=O)c2)C1 (single isomer, unassigned) [Compound 943, 5-(2-(5-methyl-2-(1H-thieno[2,3-c]pyrazol-5-yl)piperidin-1-yl)-2-oxoacetamido)nicotinamide] | 0.05 to 0.5 | < 0.05 | < 0.1 | < 0.05 | 0.1 to 1 | A (an IC50 ratio greater than or equal to 10 fold) | < 1
11 | Cc1ccc([C@@H]2CC(F)(F)[C@@H](C)CN2C(=O)C(=O)Nc2cnc(N)c(C)c2)cn1 (single isomer, unassigned) [Compound 944] | > 0.5 | > 0.5 | > 1 | > 0.5 | > 1 | C (an IC50 ratio of less than 3 fold) | > 10
12 | COc1ncc(NC(=O)C(=O)N2C[C@@H](C)CC[C@@H]2c2cc(Cl)cc(Cl)c2)cc1C(N)=O (single isomer, unassigned) [Compound 945] | 0.05 to 0.5 | < 0.05 | < 0.1 | 0.05 to 0.5 | > 1 | A (an IC50 ratio greater than or equal to 10 fold) | 1 to 10
13 | Cc1ccc([C@@H]2CC(F)(F)[C@@H](C)CN2C(=O)C(=O)Nc2cncc(C(N)=O)c2)cn1 (single isomer, unassigned) [Compound 946] | > 0.5 | > 0.5 | > 1 | > 0.5 | > 1 | B (an IC50 ratio greater than or equal to 3 fold but lower than 10 fold) | > 10
14 | COc1ncc(NC(=O)C(=O)N2C[C@H](C)CC[C@H]2c2cc3cn[nH]c3s2)cc1C(N)=O (single isomer, unassigned) [Compound 950, 2-methoxy-5-(2-(5-methyl-2-(1H-thieno[2,3-c]pyrazol-5-yl)piperidin-1-yl)-2-oxoacetamido)nicotinamide] | > 0.5 | > 0.5 | > 1 | > 0.5 | > 1 | B (an IC50 ratio greater than or equal to 3 fold but lower than 10 fold) | > 10
15 | CCc1cc(NC(=O)C(=O)N2C[C@@H](C)CC[C@@H]2c2cc(Cl)cc(Cl)c2)cnc1N (single isomer, unassigned) [Compound 951] | 0.05 to 0.5 | < 0.05 | < 0.1 | < 0.05 | > 1 | A (an IC50 ratio greater than or equal to 10 fold) | 1 to 10
16 | COc1ncc(NC(=O)C(=O)N2C[C@H](C)CC[C@H]2c2cc3[nH]ncc3s2)cc1C(N)=O (single isomer, unassigned) [Compound 952, 2-methoxy-5-(2-(5-methyl-2-(1H-thieno[3,2-c]pyrazol-5-yl)piperidin-1-yl)-2-oxoacetamido)nicotinamide] | > 0.5 | > 0.5 | > 1 | > 0.5 | > 1 | B (an IC50 ratio greater than or equal to 3 fold but lower than 10 fold) | > 10
17 | CCc1cc(NC(=O)C(=O)N2C[C@H](C)CC[C@H]2c2cc3[nH]ncc3s2)cnc1N (single isomer, unassigned) [Compound 955] | 0.05 to 0.5 | < 0.05 | < 0.1 | < 0.05 | 0.1 to 1 | A (an IC50 ratio greater than or equal to 10 fold) | < 1
18 | Cc1cc(NC(=O)C(=O)N2C[C@H](C)CC[C@H]2c2cccc3scnc23)cnc1N (single isomer, unassigned) [Compound 960] | 0.05 to 0.5 | < 0.05 | 0.1 to 1 | 0.05 to 0.5 | > 1 | A (an IC50 ratio greater than or equal to 10 fold) | 1 to 10
